# Measurements taken from patent US11076597B2, “High stress resistant plant growth regulator and preparation method and use thereof” (SHANGHAI INSTITUTES FOR BIOLOGICAL SCIENCES, CHINESE …, priority 2015, dated 2021).
# Entries after “also recorded” stand apart in the source; their conditions may differ.
# What was measured:
# [1] = system: Arabidopsis thaliana Col-0 ecotype; test: Soil drought experiment, Arabidopsis; format: in vivo; details: for growth after drought: 5 μM spray, two weeks after the drought, FIG. 12; for survival/growth after drought: 5 μM sprayed once every week, twice in total, four weeks of drought, FIG. 7
# Experimental: Seeds of Arabidopsis Col-0 ecotype were sterilized with NaClO and then sown on ½ MS solid medium at 4° C. for 3 days of vernalization. After 6 days of growing, the well-grown seedlings having uniform size were selected and transferred into 8×7×6 cm^3 pots. Each pot was filled with the same weight of soil and same number of plants (six plants) was transferred to reduce experimental error. All the pots were subjected to a short-day culture at 22° C. After two weeks, watering was stopped for drought treatment. A solution containing 0.05% Tween-20 and 5 μM 0224/0706/0715/0428 or 0.05% Tween-20 and 0.05% DMSO (control) was sprayed onto the leaf surface once per week with a spray amount of 2 ml solution/pot. The position of the flowerpot was changed every day during the process of drought to reduce the error caused by environmental factors. During the whole drought period, the solution was sprayed twice in total and photos were recorded after four weeks.
# Arabidopsis thaliana Col-0 ecotype that had been growing in the soil for two weeks was stopped watering, the leaf was sprayed with a solution containing 5 μM compound 0224/0706/0715 or 0.05% DMSO (control) once every week during the drought, with a spray amount of 2 ml solution/pot, twice in total and a 0.05% (v/v) surfactant Tween-20 was added to the solution to enhance the penetrating effect of the spray agent on the leaf epidermis. […] The same method was performed for drought treatment and (+)-ABA or 0428-treated Arabidopsis was photographed two weeks after the drought.
# [2] = biological target: T1, PYL2 receptor-HAB1 complex (Arabidopsis thaliana, UniProt O80992); test: HAB1 phosphatase activity assay (SnRK2.6 phosphorylated polypeptide as substrate); format: biochemical; details: FIG. 1a-1g; 100 nM HAB1, 500 nM PYL2
# T1 construct: made in house; host or cells: E. coli BL21 (DE3)
# T1 sequence (O80992 14-188): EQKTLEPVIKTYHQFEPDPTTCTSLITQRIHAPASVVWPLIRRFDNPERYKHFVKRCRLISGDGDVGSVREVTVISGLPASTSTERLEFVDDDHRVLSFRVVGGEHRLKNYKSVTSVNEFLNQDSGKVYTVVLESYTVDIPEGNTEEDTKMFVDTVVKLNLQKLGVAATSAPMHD
# T1 sequence (Q9CAJ0 172-511 partner limits assumed): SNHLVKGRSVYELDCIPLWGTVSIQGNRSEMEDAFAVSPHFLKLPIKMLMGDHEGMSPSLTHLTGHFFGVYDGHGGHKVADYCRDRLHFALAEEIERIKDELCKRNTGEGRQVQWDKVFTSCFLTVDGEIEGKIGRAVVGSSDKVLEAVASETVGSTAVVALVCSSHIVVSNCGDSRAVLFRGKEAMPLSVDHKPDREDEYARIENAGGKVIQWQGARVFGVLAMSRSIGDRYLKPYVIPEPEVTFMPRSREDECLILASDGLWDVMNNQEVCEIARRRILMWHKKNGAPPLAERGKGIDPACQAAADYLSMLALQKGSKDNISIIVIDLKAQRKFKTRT
# Experimental: 50 mM imidazole, pH 7.2, 5 mM MgCl2, 0.1% β-mercaptoethanol, 0.5 μg·ml^−1 BSA, 100 nM HAB1 protein with a Biotin tag sequence, 500 nM PYL2 receptor protein with 6×His-SUMO dual tag sequence and the corresponding concentration of (+)-ABA/0224/0304/0706/0708/0713/0715/1028c/0428/1022B/NC0F4 were contained in the reaction system. The reaction system was incubated at room temperature for 30 minutes, followed by a further reaction for 30 minutes after adding an 11-amino acid phosphorylated polypeptide as a substrate. The phosphorylated polypeptide is amino acid 170-180 of SnRK2.6 protein kinase, wherein phosphorylated serine at position 175 (with a sequence of HSQPKpSTVGTP, purchased from Kingsley Company) was a known HAB1 dephosphorylation target site. After 30 minutes, chromogenic reagent (purchased from BioVision) was added and the absorbance at 650 nm was read on a microplate reader (Molecular Devices).
Structure (SMILES),growth after drought [1],inhibition of HAB1 protein phosphatase activity by promoting binding between PYL2 receptor and HAB1 [2],survival/growth after drought [1]
"CC1=CC(=O)CC(C)(C)[C@@]1(O)/C=C/C(C)=C\C(=O)O [ABA, Abscisic Acid, reference compound]",had no difference from that of plants in the DMSO-sprayed control group,,
Cc1c(F)c(F)c(CS(=O)(=O)Nc2ccc3c(c2)C(C)OC(=O)N3CCCF)c(F)c1F (stereo not shown) [Compound 0715],,inhibiting the activity of protein phosphatase HAB1; also recorded: inhibiting the dephosphorylation effect of HAB1 on SnRK2.6 phosphorylated polypeptide,still grows normally; also recorded: still survived
CCCN1C(=O)OC(C)c2cc(NS(=O)(=O)Cc3c(F)c(F)c(C)c(F)c3F)ccc21 (stereo not shown) [Compound 0224],,inhibiting the activity of protein phosphatase HAB1; also recorded: inhibiting the dephosphorylation effect of HAB1 on SnRK2.6 phosphorylated polypeptide,still grows normally; also recorded: still survived
CCN1C(=O)OC(C)c2cc(NS(=O)(=O)Cc3c(F)c(F)c(C)c(F)c3F)ccc21 (stereo not shown) [Compound 0706],,inhibiting the activity of protein phosphatase HAB1; also recorded: inhibiting the dephosphorylation effect of HAB1 on SnRK2.6 phosphorylated polypeptide,still grows normally; also recorded: still survived
CCCN1C(=O)OC(C)(C)c2cc(NS(=O)(=O)Cc3c(F)c(F)c(C)c(F)c3F)ccc21 [Compound 0304],,inhibiting the activity of protein phosphatase HAB1; also recorded: inhibiting the dephosphorylation effect of HAB1 on SnRK2.6 phosphorylated polypeptide,
CCCN1C(=O)OCc2cc(NS(=O)(=O)Cc3c(F)c(F)c(C)c(F)c3F)ccc21 [Compound 0428],exhibits a better growth condition than that in the control group and that sprayed with ABA; also recorded: significantly better than that of plants in DMSO-sprayed control group and plants sprayed with 5 μM (+)-ABA,inhibiting the activity of protein phosphatase HAB1; also recorded: inhibiting the dephosphorylation effect of HAB1 on SnRK2.6 phosphorylated polypeptide,
